Experiments:
[1] = biological target: T1, Beta-glucuronidase (Bos taurus, UniProt A3KMY8); assay: Inhibition of bovine liver beta-glucuronidase assessed as p-nitrophenol formation preincubated for 30 mins followed by p-nitrophenyl-beta-D-glucuronide addition by spectrophotometric method
T1 sequence (A3KMY8 whole entry): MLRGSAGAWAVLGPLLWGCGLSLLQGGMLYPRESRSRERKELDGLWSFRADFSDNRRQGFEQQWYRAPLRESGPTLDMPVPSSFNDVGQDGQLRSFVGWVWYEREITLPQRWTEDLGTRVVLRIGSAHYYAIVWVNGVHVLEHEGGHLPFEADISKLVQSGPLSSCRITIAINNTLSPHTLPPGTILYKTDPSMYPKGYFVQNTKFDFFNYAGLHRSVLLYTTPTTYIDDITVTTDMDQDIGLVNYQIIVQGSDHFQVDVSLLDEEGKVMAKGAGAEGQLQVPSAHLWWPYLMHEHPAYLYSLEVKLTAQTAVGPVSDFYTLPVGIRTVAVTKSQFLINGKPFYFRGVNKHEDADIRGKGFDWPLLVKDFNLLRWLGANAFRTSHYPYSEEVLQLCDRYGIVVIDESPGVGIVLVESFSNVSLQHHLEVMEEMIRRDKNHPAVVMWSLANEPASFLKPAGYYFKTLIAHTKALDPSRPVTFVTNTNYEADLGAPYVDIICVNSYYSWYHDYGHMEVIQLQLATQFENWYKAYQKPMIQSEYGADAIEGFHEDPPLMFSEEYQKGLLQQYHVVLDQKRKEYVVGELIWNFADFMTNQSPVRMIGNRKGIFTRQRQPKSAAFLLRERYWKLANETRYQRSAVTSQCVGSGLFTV

[2] = biological target: T2, Beta-glucuronidase (Bos taurus) (UniProt A3KMY8); assay: Potency index, ratio of D-saccharic acid 1,4-lactone IC50 to compound IC50 for bovine liver beta-glucuronidase
T2 sequence (whole entry): T1 sequence (A3KMY8 whole entry)

`COC(=O)C1=C(C)NC(=O)NC1c1ccc(C)s1` (stereo not given) showed an IC50 ([1]; read-out: IC50) of 33.1 µM.
Compound `COC(=O)C1=C(C)NC(=O)NC1c1ccc([N+](=O)[O-])cc1` (stereo not given) has an IC50 ([1]; read-out: IC50) of 49.1 µM.
Work on `COC(=O)C1=C(C)NC(=O)NC1c1cc(OC)c(O)c(OC)c1` (stereo not given) yielded an IC50 ([1]; read-out: IC50) of 34.2 µM.
`COC(=O)C1=C(C)NC(=O)NC1c1ccc(C)o1` (stereo not given) gave an IC50 ([1]; read-out: IC50) of 44.2 µM.
With `COC(=O)C1=C(C)NC(=O)NC1c1ccc(F)c(OC)c1` (stereo not given) the IC50 ([1]; read-out: IC50) was 22.1 µM.
Compound `COC(=O)C1=C(C)NC(=O)NC1c1ccccc1Cl` (stereo not given) has an IC50 ([1]; read-out: IC50) of 44.2 µM.
With `CCCCC1NC(=O)NC(C)=C1C(=O)OC` (stereo not given) the IC50 ([1]; read-out: IC50) was 78.2 µM.
`CCC1NC(=O)NC(C)=C1C(=O)OC` (stereo not given) was tested, and the IC50 ([1]; read-out: IC50) was 52.2 µM.
`COC(=O)C1=C(C)NC(=O)NC1c1ccc(OC)cc1` (stereo not given) gave an IC50 ([1]; read-out: IC50) of 59.2 µM.
`COC(=O)C1=C(C)NC(=O)NC1c1ccc(C(F)(F)F)cc1` (stereo not given) gave a Ratio IC50 [2] of 5 and an IC50 ([1]; read-out: IC50) of 9.38 µM.
For `COC(=O)C1=C(C)NC(=O)NC1c1ccccc1OC` (stereo not given), the IC50 ([1]; read-out: IC50) was 59.2 µM.
In the case of `COC(=O)C1=C(C)NC(=O)NC1c1cccs1` (stereo not given), the IC50 ([1]; read-out: IC50) is reported as 18.2 µM.
`COC(=O)C1=C(C)NC(=O)NC1c1ccc(OC(C)=O)c(OC)c1` (stereo not given) gave an IC50 ([1]; read-out: IC50) of 28.2 µM.
In the case of `COC(=O)C1=C(C)NC(=O)NC1c1cc(Br)c(OC)c(OC)c1` (stereo not given), the IC50 [1] is reported as “Not Active”.
In the case of `COC(=O)C1=C(C)NC(=O)NC1c1cccc2ccccc12` (stereo not given), the IC50 ([1]; read-out: IC50) is reported as 48.2 µM.
`COC(=O)C1=C(C)NC(=O)NC1c1ccccc1F` (stereo not given) was tested, and the IC50 ([1]; read-out: IC50) was 14.1 µM.
In the case of `COC(=O)C1=C(C)NC(=O)NC1c1cc(OC)ccc1OC` (stereo not given), the IC50 ([1]; read-out: IC50) is reported as 61 µM.
`COC(=O)C1=C(C)NC(=O)NC1c1cccc(OC)c1OC` (stereo not given) showed an IC50 ([1]; read-out: IC50) of 54.2 µM.
`COC(=O)C1=C(C)NC(=O)NC1CC(C)C` (stereo not given) gave an IC50 ([1]; read-out: IC50) of 55.2 µM.
For `COC(=O)C1=C(C)NC(=O)NC1c1ccc(Cl)cc1` (stereo not given), the IC50 ([1]; read-out: IC50) was 34.2 µM.
`COC(=O)C1=C(C)NC(=O)NC1c1ccc(OC)cc1F` (stereo not given) showed an IC50 ([1]; read-out: IC50) of 18.2 µM.
With `COC(=O)C1=C(C)NC(=O)NC1c1ccc(OC)c(OCc2ccccc2)c1` (stereo not given) the IC50 [1] was “Not Active”.
With `COC(=O)C1=C(C)NC(=O)NC1c1c(Cl)cccc1Cl` (stereo not given) the Ratio IC50 [2] was 2 and the IC50 ([1]; read-out: IC50) was 24.2 µM.
Compound `COC(=O)C1=C(C)NC(=O)NC1c1ccc(Br)cc1` (stereo not given) has an IC50 ([1]; read-out: IC50) of 64.1 µM.
With `COC(=O)C1=C(C)NC(=O)NC1c1cccc(OCc2ccccc2)c1` (stereo not given) the IC50 [1] was “Not Active”.
`CCOc1ccc(C2NC(=O)NC(C)=C2C(=O)OC)cc1` (stereo not given) was tested, and the IC50 ([1]; read-out: IC50) was 72.2 µM.
`COC(=O)C1=C(C)NC(=O)NC1c1ccco1` (stereo not given) was tested, and the IC50 ([1]; read-out: IC50) was 40.2 µM.
For `COC(=O)C1=C(C)NC(=O)NC1c1ccc(OC)c(OC)c1` (stereo not given), the IC50 [1] was “Not Active”.
`COC(=O)C1=C(C)NC(=O)NC1c1ccc(C(C)C)cc1` (stereo not given) was tested, and the IC50 [1] was “Not Active”.
For `COC(=O)C1=C(C)NC(=O)NC1c1cccc(O)c1` (stereo not given), the Ratio IC50 [2] was over 3 and the IC50 ([1]; read-out: IC50) was 15.2 µM.
`COC(=O)C1=C(C)NC(=O)NC1c1ccc(O)c(Cl)c1` (stereo not given) gave an IC50 ([1]; read-out: IC50) of 27.2 µM.
Work on `COC(=O)C1=C(C)NC(=O)NC1c1ccc(N(C)C)cc1` (stereo not given) yielded an IC50 ([1]; read-out: IC50) of 49.2 µM.
For `COC(=O)C1=C(C)NC(=O)NC1c1ccccc1` (stereo not given), the IC50 [1] was “Not Active”.
In the case of `COC(=O)C1=C(C)NC(=O)NC1c1ccccc1OCc1ccccc1` (stereo not given), the IC50 [1] is reported as “Not Active”.
In the case of `COC(=O)C1=C(C)NC(=O)NC1c1ccsc1` (stereo not given), the IC50 ([1]; read-out: IC50) is reported as 47.2 µM.
For `COC(=O)C1=C(C)NC(=O)NC1c1ccc2ccccc2c1` (stereo not given), the IC50 [1] was “Not Active”.
`COC(=O)C1=C(C)NC(=O)NC1c1ccc(O)cc1` (stereo not given) showed an IC50 ([1]; read-out: IC50) of 17.6 µM.
